Results reported in ChEMBL document CHEMBL3885881, “DrugMatrix”.

Organism: Rattus norvegicus
Test: DrugMatrix - Regimen: Daily Repeat
Assay type: toxicity, organism-based, Sprague-Dawley
Parameters: regimen Daily Repeat, gender Male, age 6-8 weeks
Conditions: in vivo, po, route oral GAVAGE, vehicle .5 % CMC; for BASOPHIL / EOSINOPHIL / ERYTHROCYTE COUNT / HEMATOCRIT / HEMOGLOBIN / LEUKOCYTE COUNT / LYMPHOCYTE / MEAN CORPUSCULAR HEMOGLOBIN / MEAN CORPUSCULAR HEMOGLOBIN CONCENTRATION / MEAN CORPUSCULAR VOLUME / MONOCYTE / NEUTROPHIL / PLATELET COUNT: tissue Blood; for ALANINE AMINOTRANSFERASE / ALBUMIN / ALKALINE PHOSPHATASE / ASPARTATE AMINOTRANSFERASE / BLOOD UREA NITROGEN / CARBON DIOXIDE / CHLORIDE / CHOLESTEROL / CREATINE PHOSPHOKINASE / CREATININE / GLUCOSE / LACTATE DEHYDROGENASE / LIPASE / PHOSPHORUS / POTASSIUM / SODIUM / TOTAL BILIRUBIN / TOTAL PROTEIN / URIC ACID: tissue Plasma
[1] = 0 mg/kg, 96 h, dose level Control, time 4 day
[2] = 0 mg/kg, […], dose level Control, time 6 day
[3] = 0 mg/kg, […], dose level Control, time 14 day
[4] = […], 96 h, dose 4.6 mg/Kg, dose level High, time 4 day
[5] = […], dose 4.6 mg/Kg, dose level High, time 6 day
[6] = […], dose 4.6 mg/Kg, dose level High, time 14 day

COc1ccc(C(=O)Nc2c(Cl)c[n+]([O-])cc2Cl)c2ccc(C(F)(F)F)nc12 [SCH-351591]
BASOPHIL [1]: 0.5%
EOSINOPHIL [1]: 1.85%
ERYTHROCYTE COUNT [1]: 6.99 x10E6/uL
HEMATOCRIT [1]: 43.82%
HEMOGLOBIN [1]: 13.87 G/DL
LEUKOCYTE COUNT [1]: 12.01 x10E3/uL
LYMPHOCYTE [1]: 82.07%
MEAN CORPUSCULAR HEMOGLOBIN [1]: 19.8 pg
MEAN CORPUSCULAR HEMOGLOBIN CONCENTRATION [1]: 31.63 G/DL
MEAN CORPUSCULAR VOLUME [1]: 62.7 fL
MONOCYTE [1]: 2.6%
NEUTROPHIL [1]: 12.38%
PLATELET COUNT [1]: 1155 x10E3/uL
ALANINE AMINOTRANSFERASE [1]: 31.67 u/L
ALBUMIN [1]: 4.12 G/DL
ALKALINE PHOSPHATASE [1]: 396 u/L
ASPARTATE AMINOTRANSFERASE [1]: 75.67 u/L
BLOOD UREA NITROGEN [1]: 17.5 mg/dL
CARBON DIOXIDE [1]: 28.83 mmol/L
CHLORIDE [1]: 103.83 MEQ/L
CHOLESTEROL [1]: 84.83 mg/dL
CREATINE PHOSPHOKINASE [1]: 597.17 u/L
CREATININE [1]: 0.3 mg/dL
GLUCOSE [1]: 161.5 mg/dL
LACTATE DEHYDROGENASE [1]: 138.67 u/L
LIPASE [1]: 11.5 u/L
PHOSPHORUS [1]: 11.58 mg/dL
POTASSIUM [1]: 6.87 MEQ/L
SODIUM [1]: 146.83 MEQ/L
TOTAL BILIRUBIN [1]: 0.38 mg/dL
TOTAL PROTEIN [1]: 6.33 G/DL
URIC ACID [1]: 1.37 mg/dL
BASOPHIL [2]: 0.37%
EOSINOPHIL [2]: 0.38%
ERYTHROCYTE COUNT [2]: 6.89 x10E6/uL
HEMATOCRIT [2]: 47.38%
HEMOGLOBIN [2]: 14.8 G/DL
LEUKOCYTE COUNT [2]: 13.59 x10E3/uL
LYMPHOCYTE [2]: 80.27%
MEAN CORPUSCULAR HEMOGLOBIN [2]: 21.52 pg
MEAN CORPUSCULAR HEMOGLOBIN CONCENTRATION [2]: 31.22 G/DL
MEAN CORPUSCULAR VOLUME [2]: 68.83 fL
MONOCYTE [2]: 2.78%
NEUTROPHIL [2]: 15.65%
PLATELET COUNT [2]: 1330.17 x10E3/uL
BASOPHIL [3]: 0.38%
EOSINOPHIL [3]: 0.6%
ERYTHROCYTE COUNT [3]: 7.78 x10E6/uL
HEMATOCRIT [3]: 48.3%
HEMOGLOBIN [3]: 15.42 G/DL
LEUKOCYTE COUNT [3]: 13.55 x10E3/uL
LYMPHOCYTE [3]: 81.18%
MEAN CORPUSCULAR HEMOGLOBIN [3]: 19.8 pg
MEAN CORPUSCULAR HEMOGLOBIN CONCENTRATION [3]: 31.92 G/DL
MEAN CORPUSCULAR VOLUME [3]: 62.08 fL
MONOCYTE [3]: 1.72%
NEUTROPHIL [3]: 15.17%
PLATELET COUNT [3]: 1083.83 x10E3/uL
ALANINE AMINOTRANSFERASE [2]: 36 u/L
ALBUMIN [2]: 4.03 G/DL
ALKALINE PHOSPHATASE [2]: 354.17 u/L
ASPARTATE AMINOTRANSFERASE [2]: 76.5 u/L
BLOOD UREA NITROGEN [2]: 19.33 mg/dL
CARBON DIOXIDE [2]: 27.83 mmol/L
CHLORIDE [2]: 105.5 MEQ/L
CHOLESTEROL [2]: 68.83 mg/dL
CREATINE PHOSPHOKINASE [2]: 383.83 u/L
CREATININE [2]: 0.35 mg/dL
GLUCOSE [2]: 165.83 mg/dL
LACTATE DEHYDROGENASE [2]: 155.17 u/L
LIPASE [2]: 9.83 u/L
PHOSPHORUS [2]: 12.4 mg/dL
POTASSIUM [2]: 6.9 MEQ/L
SODIUM [2]: 147.33 MEQ/L
TOTAL BILIRUBIN [2]: 0.52 mg/dL
TOTAL PROTEIN [2]: 6.42 G/DL
URIC ACID [2]: 1.6 mg/dL
ALANINE AMINOTRANSFERASE [3]: 36.83 u/L
ALBUMIN [3]: 4.13 G/DL
ALKALINE PHOSPHATASE [3]: 328.17 u/L
ASPARTATE AMINOTRANSFERASE [3]: 74.83 u/L
BLOOD UREA NITROGEN [3]: 18.67 mg/dL
CARBON DIOXIDE [3]: 29.33 mmol/L
CHLORIDE [3]: 105.17 MEQ/L
CHOLESTEROL [3]: 72 mg/dL
CREATINE PHOSPHOKINASE [3]: 217.67 u/L
CREATININE [3]: 0.45 mg/dL
GLUCOSE [3]: 151.17 mg/dL
LACTATE DEHYDROGENASE [3]: 133.17 u/L
LIPASE [3]: 14.5 u/L
PHOSPHORUS [3]: 11.55 mg/dL
POTASSIUM [3]: 6.77 MEQ/L
SODIUM [3]: 149.33 MEQ/L
TOTAL BILIRUBIN [3]: 0.37 mg/dL
TOTAL PROTEIN [3]: 6.62 G/DL
URIC ACID [3]: 1.57 mg/dL
BASOPHIL [4]: 0.27%
EOSINOPHIL [4]: 1.13%
ERYTHROCYTE COUNT [4]: 6.53 x10E6/uL
HEMATOCRIT [4]: 40.97%
HEMOGLOBIN [4]: 13.13 G/DL
LEUKOCYTE COUNT [4]: 18.12 x10E3/uL
LYMPHOCYTE [4]: 79.83%
MEAN CORPUSCULAR HEMOGLOBIN [4]: 20.13 pg
MEAN CORPUSCULAR HEMOGLOBIN CONCENTRATION [4]: 32.1 G/DL
MEAN CORPUSCULAR VOLUME [4]: 62.73 fL
MONOCYTE [4]: 2.33%
NEUTROPHIL [4]: 15.77%
PLATELET COUNT [4]: 1324.67 x10E3/uL
ALANINE AMINOTRANSFERASE [4]: 40.33 u/L
ALBUMIN [4]: 3.93 G/DL
ALKALINE PHOSPHATASE [4]: 341 u/L
ASPARTATE AMINOTRANSFERASE [4]: 77 u/L
BLOOD UREA NITROGEN [4]: 21.33 mg/dL
CARBON DIOXIDE [4]: 23.33 mmol/L
CHLORIDE [4]: 105 MEQ/L
CHOLESTEROL [4]: 88 mg/dL
CREATINE PHOSPHOKINASE [4]: 540.67 u/L
CREATININE [4]: 0.4 mg/dL
GLUCOSE [4]: 177 mg/dL
LACTATE DEHYDROGENASE [4]: 256 u/L
LIPASE [4]: 18 u/L
PHOSPHORUS [4]: 12.67 mg/dL
POTASSIUM [4]: 6.37 MEQ/L
SODIUM [4]: 146.33 MEQ/L
TOTAL BILIRUBIN [4]: 0.37 mg/dL
TOTAL PROTEIN [4]: 6.23 G/DL
URIC ACID [4]: 1.67 mg/dL
BASOPHIL [5]: 0.33%
EOSINOPHIL [5]: 0.37%
ERYTHROCYTE COUNT [5]: 7.26 x10E6/uL
HEMATOCRIT [5]: 48.6%
HEMOGLOBIN [5]: 14.77 G/DL
LEUKOCYTE COUNT [5]: 20.98 x10E3/uL
LYMPHOCYTE [5]: 75.93%
MEAN CORPUSCULAR HEMOGLOBIN [5]: 20.37 pg
MEAN CORPUSCULAR HEMOGLOBIN CONCENTRATION [5]: 30.33 G/DL
MEAN CORPUSCULAR VOLUME [5]: 67.07 fL
MONOCYTE [5]: 2.13%
NEUTROPHIL [5]: 19.93%
PLATELET COUNT [5]: 1217.67 x10E3/uL
BASOPHIL [6]: 0.38%
EOSINOPHIL [6]: 0.52%
ERYTHROCYTE COUNT [6]: 7.4 x10E6/uL
HEMATOCRIT [6]: 46.48%
HEMOGLOBIN [6]: 14.82 G/DL
LEUKOCYTE COUNT [6]: 23.35 x10E3/uL
LYMPHOCYTE [6]: 67.1%
MEAN CORPUSCULAR HEMOGLOBIN [6]: 20.06 pg
MEAN CORPUSCULAR HEMOGLOBIN CONCENTRATION [6]: 31.86 G/DL
MEAN CORPUSCULAR VOLUME [6]: 62.92 fL
MONOCYTE [6]: 1.96%
NEUTROPHIL [6]: 28.36%
PLATELET COUNT [6]: 1247.4 x10E3/uL
ALANINE AMINOTRANSFERASE [5]: 24.33 u/L
ALBUMIN [5]: 3.9 G/DL
ALKALINE PHOSPHATASE [5]: 313.33 u/L
ASPARTATE AMINOTRANSFERASE [5]: 61.33 u/L
BLOOD UREA NITROGEN [5]: 17.67 mg/dL
CARBON DIOXIDE [5]: 25.67 mmol/L
CHLORIDE [5]: 108.33 MEQ/L
CHOLESTEROL [5]: 80.67 mg/dL
CREATINE PHOSPHOKINASE [5]: 190.33 u/L
CREATININE [5]: 0.47 mg/dL
GLUCOSE [5]: 161 mg/dL
LACTATE DEHYDROGENASE [5]: 82 u/L
LIPASE [5]: 43.33 u/L
PHOSPHORUS [5]: 12.93 mg/dL
POTASSIUM [5]: 6.5 MEQ/L
SODIUM [5]: 149.33 MEQ/L
TOTAL BILIRUBIN [5]: 0.43 mg/dL
TOTAL PROTEIN [5]: 6.13 G/DL
URIC ACID [5]: 1.47 mg/dL
ALANINE AMINOTRANSFERASE [6]: 34.6 u/L
ALBUMIN [6]: 3.96 G/DL
ALKALINE PHOSPHATASE [6]: 330.4 u/L
ASPARTATE AMINOTRANSFERASE [6]: 65.6 u/L
BLOOD UREA NITROGEN [6]: 21 mg/dL
CARBON DIOXIDE [6]: 26.2 mmol/L
CHLORIDE [6]: 106.4 MEQ/L
CHOLESTEROL [6]: 70 mg/dL
CREATINE PHOSPHOKINASE [6]: 225.2 u/L
CREATININE [6]: 0.48 mg/dL
GLUCOSE [6]: 157.4 mg/dL
LACTATE DEHYDROGENASE [6]: 185.6 u/L
LIPASE [6]: 29.2 u/L
PHOSPHORUS [6]: 11.86 mg/dL
POTASSIUM [6]: 6.36 MEQ/L
SODIUM [6]: 149.8 MEQ/L
TOTAL BILIRUBIN [6]: 0.38 mg/dL
TOTAL PROTEIN [6]: 6.36 G/DL
URIC ACID [6]: 1.84 mg/dL
